This note sets out measurements from patent publication US12582641B2, “Sulfur-containing compound based on glutarimide skeleton and application thereof” (SHANGHAITECH UNIVERSITY, priority 2019, dated 2026).

For this assay, the system named is MM.1S cells. Kind of assay: Proliferation inhibition (IC50) in MM.1S cells, cell viability assay. Particulars: Homo sapiens, MM1.S, 72 h, read-out: IC50 (nM), proliferation inhibitory activity of MM.1S cells (half inhibitory concentration).

Procedure: MM.1S (B lymphoblast) was purchased from ATCC. Complete medium was RPMI1640 supplemented with 10% FBS and 1% Penicillin-Streptomycin. The cells used were identified as correct cells by STR cells, and were negative for mycoplasma through routine inspections.
IC50 values of the compounds of the present disclosure were measured using Cell Titer Blue, Cell Titer GLO, or WST reagent from Promega Company. Assay details are as follows: Cells were seeded in 100 μL RPMI1640 complete medium containing serum at a density of 15,000 cells/well. After 24 h, the inoculated cells were treated with diluted commercial inhibitor and the compounds of the present disclosure to be tested after serial dilution. After the cells were treated with the compounds of the present disclosure to be tested for 72 h, cell viability was determined after adding the cell viability detection kit listed above according to the reagent operating instructions. The negative control was DMSO, and the positive control was a commercial inhibitor, both of which were used to treat the cells through the same method as that of the compounds of the present disclosure. The growth inhibition of the compounds of the present disclosure on cells was plotted by Prism Graphpad software, and the IC50 values of the compounds of the present disclosure were calculated therefrom.
We tested the activities of the compounds of the present invention in MM.1S cell (which overexpressed IKZF1/3 and is highly sensitive to immunomodulatory drugs) through a dose-dependent manner. The cells were treated with the compounds of the present invention at 10 different successively decreasing concentrations (starting at the highest concentration of 10 μM; 5-fold serial dilutions) for 72 h, and then the cell viability determination was performed in accordance with CCK-8 reagent operating instructions. The experiment was repeated more than three times.

In the case of `O=C1CCC(N2Cc3c(SCCCCCCNCC4CCCCC4)cccc3C2=O)C(=O)N1` (centres unmarked) [SIAIS1222147, 3-(4-((6-((cyclohexylmethyl)amino)hexyl)thio)-1-oxoisoindolin-2-yl)piperidine-2,6-dione], the IC50 was determined as 0.083 nM.

Turning to `CC(NCc1ccc(CSc2cccc3c2CN(C2CCC(=O)NC2=O)C3=O)cc1)C12CC3CC(CC(C3)C1)C2` (centres unmarked) [SIAIS1222157, 3-(4-((4-(((1-(adamantan-1-yl)ethyl)amino)methyl)benzyl)thio)-1-oxoisoindolin-2-yl)piperidine-2,6-dione], the IC50 was determined as 0.04 nM.

Take `O=C1CCC(N2Cc3c(SCc4ccc(CNC5CC6(CCC6)C5)cc4)cccc3C2=O)C(=O)N1` (centres unmarked) [SIAIS1222159, 3-(1-oxo-4-((4-((spiro[3.3]heptan-2-ylamino)methyl)benzyl)thio)isoindolin-2-yl)piperidine-2,6-dione]: the IC50 came to 0.05 nM.

Consider `O=C1CCC(N2Cc3c(SCc4ccc(CNC56CC(C5)C6)cc4)cccc3C2=O)C(=O)N1` (centres unmarked) [SIAIS1222161, 3-(4-((4-((bicyclo[1.1.1]pentan-1-ylamino)methyl)benzyl)thio)-1-oxoisoindolin-2-yl)piperidine-2,6-dione], for which the IC50 was found to be 0.035 nM.

Turning to `O=C1CCC(N2Cc3c(SCCC45CC6CC(CC(C6)C4)C5)cccc3C2=O)C(=O)N1` (centres unmarked) [SIAIS1222173, 3-(4-((2-(adamantan-1-yl)ethyl)thio)-1-oxoisoindolin-2-yl)piperidine-2,6-dione], the IC50 was 0.42 nM.

As to `O=C1CCC(N2Cc3c(SCCCNC45CC6CC(CC(C6)C4)C5)cccc3C2=O)C(=O)N1` (centres unmarked) [SIAIS1222177, 3-(4-((3-(adamantan-1-ylamino)propyl)thio)-1-oxoisoindolin-2-yl)piperidine-2,6-dione], the IC50 was found to be 0.693 nM.

On to `O=C1CCC(N2Cc3c(SCCCCNC45CC6CC(CC(C6)C4)C5)cccc3C2=O)C(=O)N1` (centres unmarked) [SIAIS1222179, 3-(4-((4-((adamantan-1-yl)amino)butyl)thio)-1-oxoisoindolin-2-yl)piperidine-2,6-dione], for which the IC50 amounted to 0.074 nM.

With `O=C1CCC(N2Cc3c(SCc4ccc(CNCC5CCCCC5)cc4)cccc3C2=O)C(=O)N1` (centres unmarked) [SIAIS1222187, 3-(4-((4-(((cyclohexylmethyl)amino)methyl)benzyl)thio)-1-oxoisoindolin-2-yl)piperidine-2,6-dione], the IC50 is 0.005 nM.

`O=C1CCC(N2Cc3c(SCCCCCCCN4CCC5(CC4)CC5)cccc3C2=O)C(=O)N1` (centres unmarked) [SIAIS1222195, 3-(4-((7-(6-azaspiro[2.5]octan-6-yl)heptyl)thio)-1-oxoisoindolin-2-yl)piperidine-2,6-dione]: the IC50 came to 0.046 nM.

As to `O=C1CCC(N2Cc3c(SCCCCCCCNCC4CCCCC4)cccc3C2=O)C(=O)N1` (centres unmarked) [SIAIS1222199, 3-(4-((7-((cyclohexylmethyl)amino)heptyl)thio)-1-oxoisoindolin-2-yl)piperidine-2,6-dione], the IC50 turned out to be 0.062 nM.

As for `O=C1CCC(N2C(=O)c3cccc(SCCCCCCCNC4CC5(CCC5)C4)c3C2=O)C(=O)N1` (centres unmarked) [SIAIS1224015, 2-(2,6-dioxopiperidin-3-yl)-4-((7-(spiro[3.3]heptan-2-ylamino)heptyl)thio)isoindoline-1,3-dione], the IC50 is 0.691 nM.

For the molecule `O=C1CCC(N2Cc3c(SCc4ccc(CNCC5CCCCO5)cc4)cccc3C2=O)C(=O)N1` (centres unmarked) [SIAIS1224019, 3-(1-oxo-4-((4-((((tetrahydro-2H-pyran-2-yl)methyl)amino)methyl)benzyl)thio)isoindolin-2-yl)piperidine-2,6-dione], the IC50 stood at 0.048 nM.

For `O=C1CCC(N2Cc3c(SCCCCCCCNC(C4CC4)C4CC4)cccc3C2=O)C(=O)N1` (centres unmarked) [SIAIS1224031, 3-(4-((7-((dicyclopropylmethyl)amino)heptyl)thio)-1-oxoisoindolin-2-yl)piperidine-2,6-dione], the IC50 is 0.105 nM.

Take `O=C1CCC(N2Cc3c(SCCCCCCCN4Cc5ccccc5C4)cccc3C2=O)C(=O)N1` (centres unmarked) [SIAIS1224033, 3-(4-((7-(isoindolin-2-yl)heptyl)thio)-1-oxoisoindolin-2-yl)piperidine-2,6-dione]: the IC50 is 0.082 nM.

With `O=C1CCC(N2Cc3c(SCCCCCCCN[C@@H]4CN5CCC4CC5)cccc3C2=O)C(=O)N1` (stereo partly drawn) [SIAIS1224035, 3-(1-oxo-4-((7-(((S)-quinuclidin-3-yl)amino)heptyl)thio)isoindolin-2-yl)piperidine-2,6-dione], the IC50 worked out at 15.1 nM.

With `O=C1CCC(N2Cc3c(SCCCCCCCN[C@H]4CN5CCC4CC5)cccc3C2=O)C(=O)N1` (stereo partly drawn) [SIAIS1224037, 3-(1-oxo-4-((7-(((R)-quinuclidin-3-yl)amino)heptyl)thio)isoindolin-2-yl)piperidine-2,6-dione], the IC50 is 14 nM.

For the molecule `CS(=O)(=O)N1CCN(CCCCCCCSc2cccc3c2CN(C2CCC(=O)NC2=O)C3=O)CC1` (centres unmarked) [SIAIS1224039, 3-(4-((7-(4-(methylsulfonyl)piperazin-1-yl)heptyl)thio)-1-oxoisoindolin-2-yl)piperidine-2,6-dione], the IC50 was 0.54 nM.

For `O=C1CCC(N2Cc3c(SCc4ccc(CN5CCSCC5)cc4)cccc3C2=O)C(=O)N1` (centres unmarked) [SIAIS1224089, 3-(1-oxo-4-((4-(thiomorpholinomethyl)benzyl)thio)isoindolin-2-yl)piperidine-2,6-dione], the IC50 amounted to 0.144 nM.

In the case of `CN1C(=O)CCC(N2Cc3c(SCc4ccc(CN5CCCCC5)cc4)cccc3C2=O)C1=O` (centres unmarked) [SIAIS1224101, 1-methyl-3-(1-oxo-4-((4-(piperidin-1-ylmethyl)benzyl)thio)isoindolin-2-yl)piperidine-2,6-dione], the IC50 turned out to be 287 nM.

Turning to `O=C1CCC(N2Cc3c(SCCc4ccc(CCN5CCCCC5)cc4)cccc3C2=O)C(=O)N1` (centres unmarked) [SIAIS1224117, 3-(1-oxo-4-((4-(2-(piperidin-1-yl)ethyl)phenethyl)thio)isoindolin-2-yl)piperidine-2,6-dione], the IC50 was found to be 0.19 ± 0.01 nM.

As for `O=C1CCC(N2Cc3c(SCCc4ccc(CCNC56CC7CC(CC(C7)C5)C6)cc4)cccc3C2=O)C(=O)N1` (centres unmarked) [SIAIS1224121, 3-(4-((4-(2-((adamantan-1-yl)amino)ethyl)phenethyl)thio)-1-oxoisoindolin-2-yl)piperidine-2,6-dione], the IC50 is 0.48 ± 0.05 nM.

On to `O=C1CCC(N2Cc3c(SCCCCCCCN4CCSCC4)cccc3C2=O)C(=O)N1` (centres unmarked) [SIAIS1224125, 3-(1-oxo-4-((7-thiomorpholinoheptyl)thio)isoindolin-2-yl)piperidine-2,6-dione], for which the IC50 is 0.046 nM.

As to `O=C1CCC(N2Cc3c(SCCc4ccc(CNC56CC7CC(CC(C7)C5)C6)cc4)cccc3C2=O)C(=O)N1` (centres unmarked) [SIAIS1224149, 3-(4-((4-(((adamantan-1-yl)amino)methyl)phenethyl)thio)-1-oxoisoindolin-2-yl)piperidine-2,6-dione], the IC50 is 0.44 ± 0.1 nM.

Turning to `O=C1CCC(N2C(=O)c3cccc(SCCc4ccc(CNC56CC7CC(CC(C7)C5)C6)cc4)c3C2=O)C(=O)N1` (centres unmarked) [SIAIS1224151, 4-((4-(((adamantan-1-yl)amino)methyl)phenethyl)thio)-2-(2,6-dioxopiperidin-3-yl)isoindoline-1,3-dione], the IC50 worked out at 3.41 nM.

As to `O=C1CCC(N2Cc3c(SCc4ccc(CCN5CCCCC5)cc4)cccc3C2=O)C(=O)N1` (centres unmarked) [SIAIS1224153, 3-(1-oxo-4-((4-(2-(piperidin-1-yl)ethyl)benzyl)thio)isoindolin-2-yl)piperidine-2,6-dione], the IC50 was determined as 0.024 ± 0.002 nM.

Consider `O=C1CCC(N2Cc3c(SCc4ccc(/C=C/Br)cc4)cccc3C2=O)C(=O)N1` (centres unmarked) [SIAIS1224154, (E)-3-(4-((4-(2-bromovinyl)benzyl)thio)-1-oxoisoindolin-2-yl)piperidine-2,6-dione], for which the IC50 turned out to be 0.809 nM.

In the case of `O=C1CCC(N2Cc3c(SCc4ccc(CCNC5CCCCC5)cc4)cccc3C2=O)C(=O)N1` (centres unmarked) [SIAIS1224155, 3-(4-((4-(2-(cyclohexylamino)ethyl)benzyl)thio)-1-oxoisoindolin-2-yl)piperidine-2,6-dione], the IC50 was found to be 0.021 ± 0.004 nM.

Consider `O=C1CCC(N2Cc3c(SCCc4ccc(CN5CCCCC5)cc4)cccc3C2=O)C(=O)N1` (centres unmarked) [SIAIS1224161, 3-(1-oxo-4-((4-(piperidin-1-ylmethyl)phenethyl)thio)isoindolin-2-yl)piperidine-2,6-dione], for which the IC50 is 3.62 nM.

For the molecule `O=C1CCC(N2C(=O)c3cccc(SCCc4ccc(CN5CCCCC5)cc4)c3C2=O)C(=O)N1` (centres unmarked) [SIAIS1224163, 2-(2,6-dioxopiperidin-3-yl)-4-((4-(piperidin-1-ylmethyl)phenethyl)thio)isoindoline-1,3-dione], the IC50 turned out to be 7.41 nM.

For the molecule `O=C1CCC(N2Cc3c(SCCc4ccc(CNC5CCCCC5)cc4)cccc3C2=O)C(=O)N1` (centres unmarked) [SIAIS1227007, 3-(4-((4-((cyclohexylamino)methyl)phenethyl)thio)-1-oxoisoindolin-2-yl)piperidine-2,6-dione], the IC50 stood at 0.67 ± 0.27 nM.

Regarding `O=C1CCC(N2C(=O)c3cccc(SCCc4ccc(CNC5CCCCC5)cc4)c3C2=O)C(=O)N1` (centres unmarked) [SIAIS1227019, 4-((4-((cyclohexylamino)methyl)phenethyl)thio)-2-(2,6-dioxopiperidin-3-yl)isoindoline-1,3-dione], the IC50 came out at 34.3 nM.

`O=C1CCC(N2Cc3c(SCCCc4ccc(CN5CCCCC5)cc4)cccc3C2=O)C(=O)N1` (centres unmarked) [SIAIS1227035, 3-(1-oxo-4-((3-(4-(piperidin-1-ylmethyl)phenyl)propyl)thio)isoindolin-2-yl)piperidine-2,6-dione]: the IC50 stood at 0.14 ± 0.04 nM.

Turning to `O=C1CCC(N2Cc3c(SCCCc4ccc(CNC56CC7CC(CC(C7)C5)C6)cc4)cccc3C2=O)C(=O)N1` (centres unmarked) [SIAIS1227037, 3-(4-((3-(4-(((adamantan-1-yl)amino)methyl)phenyl)propyl)thio)-1-oxoisoindolin-2-yl)piperidine-2,6-dione], the IC50 was found to be 0.04 ± 0.02 nM.

For the molecule `O=C1CCC(N2C(=O)c3cccc(SCCCc4ccc(CN5CCCCC5)cc4)c3C2=O)C(=O)N1` (centres unmarked) [SIAIS1227039, 2-(2,6-dioxopiperidin-3-yl)-4-((3-(4-(piperidin-1-ylmethyl)phenyl)propyl)thio)isoindoline-1,3-dione], the IC50 stood at 2.49 nM.

For `O=C1CCC(N2C(=O)c3cccc(SCCCc4ccc(CNC56CC7CC(CC(C7)C5)C6)cc4)c3C2=O)C(=O)N1` (centres unmarked) [SIAIS1227041, 4-((3-(4-(((adamantan-1-yl)amino)methyl)phenyl)propyl)thio)-2-(2,6-dioxopiperidin-3-yl)isoindoline-1,3-dione], the IC50 turned out to be 0.095 nM.
